This note sets out measurements from article PMC9820345, “Metal Complexes of a 5-Nitro-8-Hydroxyquinoline-Proline Hybrid with Enhanced Water Solubility Targeting Multidrug Resistant Cancer Cells” (International Journal of Molecular Sciences, 2022).

Series [1] is described as follows: Complex formation kinetics (UV-vis, tandem cuvette). As to conditions: 50 μM triaqua complex + 50 μM ligand. The class given is physicochemical. As for the experimental part: The complex formation kinetics for the RhCp* and RuCym complexes was also assayed and compared at pH 1 and 4 (Figure S20). UV-vis spectral changes were followed in time after the triaqua complex [M(arene)(H2O)3]^2+ (50 μM) and the ligand (50 μM) were mixed in a tandem cuvette. The equilibrium was reached much faster in the case of the RhCp* complex (~5 min at pH 1, ~1 min at pH 4), as compared to the RuCym complex (~7 h at pH 1, ~45 min at pH 4).

In another series the target is T1, HSA site I (Trp-214) (Homo sapiens, UniProt P02768).
T1 construct: purchased Sigma-Aldrich (Darmstadt, Germany) A8763
In words: HSA Trp-214 quenching by fluorometry (site I). As to conditions: 1 µM HSA, pH 7.4 (PBS'), 24 h incubation. The class given is binding. As for the experimental part:
Therefore, tryptophan (Trp-214) quenching and dansylglycine (DG) site marker displacement experiments were conducted by fluorometry to obtain information about the binding at sites I and II, respectively, using the same approach reported in our former paper. A representative spectral series is shown in Figure 9a for the Trp-214 quenching experiment, upon the addition of the RhCp*–HQNO2-L-Pro complex and the computed binding constants (logKQ’ and logKDG’) which can be found in Figure 9b, in addition to the corresponding data for the HQCl-L-Pro complexes.
A Fluoromax (Horiba Jobin Yvon, Longjumeau, France) spectrofluorometer was utilized for fluorescence measurements using a 1 cm × 1 cm quartz cuvette. Samples contained 1 µM HSA or DG and 1 µM HSA at pH 7.4 (PBS’), and the complex concentration was varied between 0 and 53 µM. The measurements were carried out on individual samples. Excitation wavelengths were 295 nm for Trp-214 quenching, and 335 nm for the DG displacement studies, respectively. The calculated conditional stability constants for HSA–complex species were obtained using the computer program HypSpec. Calculations always were based on data obtained from at least two independent measurements. Self-absorbance and inner filter effect had to be taken into account, and corrections were made as was described in our former works.

A short description of series [2]: Mixed-ligand adduct formation with N-methylimidazole. Type of series: binding. As to conditions: mim, pH 7.4. As for the experimental part: (§1) According to numerous papers on the binding of half-sandwich organometallic complexes to HSA [35, 36], surface exposed histidine (His) side chains are the most feasible coordinating moieties. […] The equilibrium could be reached within 3–10 min in the case of the RhCp* complex on the basis of the UV-vis spectral changes (Figure S28), and similar conditional constants (logK’) were computed with these model compounds for the formation of mixed-ligand RhCp* complexes; namely logK’ 5.00 ± 0.1, 4.4 ± 0.1, 5.1 ± 0.1 were obtained in the case of FHA, AHA, and mim, respectively. […] In the case of the oligopeptides, formation of isomers was detected which might be explained by the existence of two chiral centers, namely the metal ion and His-CHα. The adduct formation of the RuCym complex with mim was quantitative, hindering the determination of the logK’ value (meaning logK’ > 5.5). […]
(§2) An Agilent Cary 8454 diode array spectrophotometer (Santa Clara, CA, USA) was used to obtain UV-vis spectra in the wavelength range 200–1000 nm, while spectra were recorded for the Fe(II)-containing samples using an Avantes (Avantes B.V., Apeldoorn, The Nederlands) AvaSpec-ULS2048CL-EVO spectrometer with an AvaLight-DHc light source and FDP-7UVIR200-2-VAR transmission dip probe. […]

Series [3] can be described thus: Stability of the complexes in RPMI medium (UV-vis, 1H NMR). The class given is physicochemical. Particulars: compared with serum. From the text:
The stability of the RhCp* and RuCym complexes of HQNO2-L-Pro was also monitored in Roswell Park Memorial Institute (RPMI) medium used for the in vitro cell studies (in the case of Colo cells), and in blood serum using UV-vis and ^1H NMR spectroscopy. […] Despite these changes, the dissociation of the complexes is not likely as the liberation of the unbound ligand was not observed; thus, the complexes most probably form ternary complexes with the components of the serum or the medium. In order to further study the reactivity of these complexes with bioligands, their interaction with human serum albumin (HSA) and selected oligopeptides (also used as binding models of HSA) was assayed.

The next series deals with Ac-Ala-His-Ala-NH2 (AHA). In words: Mixed-ligand adduct formation with His-containing oligopeptide AHA. Type of series: binding. The procedure:
as §1, §2

SMILES strings stand for the structures.

T1 sequence (P02768 25-609): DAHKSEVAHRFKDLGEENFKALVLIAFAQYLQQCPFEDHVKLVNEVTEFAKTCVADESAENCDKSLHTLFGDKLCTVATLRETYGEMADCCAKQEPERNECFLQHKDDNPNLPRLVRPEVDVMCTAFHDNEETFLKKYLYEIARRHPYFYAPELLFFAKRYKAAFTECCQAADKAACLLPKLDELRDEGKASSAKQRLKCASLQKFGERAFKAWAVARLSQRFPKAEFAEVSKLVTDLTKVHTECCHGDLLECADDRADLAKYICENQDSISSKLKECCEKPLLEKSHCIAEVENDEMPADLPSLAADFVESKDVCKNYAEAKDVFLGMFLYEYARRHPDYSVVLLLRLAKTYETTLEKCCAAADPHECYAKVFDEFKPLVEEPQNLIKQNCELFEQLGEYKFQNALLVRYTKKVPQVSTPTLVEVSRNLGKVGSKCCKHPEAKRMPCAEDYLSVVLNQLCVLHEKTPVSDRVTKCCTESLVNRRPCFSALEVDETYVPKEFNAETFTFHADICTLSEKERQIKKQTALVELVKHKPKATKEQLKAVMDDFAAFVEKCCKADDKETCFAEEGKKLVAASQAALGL

On to `CC1=C(C)[C](C)([Rh]([Cl])[O]c2c(C[NH+]3CCC[C@H]3C(=O)O)cc([N+](=O)[O-])c3cccnc23)C(C)=C1C.[Cl-]` [RhCp*-HQNO2-L-Pro, [RhCp*(HQNO2-L-Pro)Cl]Cl], for which the “time to reach equilibrium of complex formation” value in series [1] (pH 1) is reported as ~ 5 min; in series [1] (pH 4) it was ~ 1 min. Besides, on HSA site I (Trp-214), the “quenching constant logKQ'” value was found to be 5.1. In addition, the “conditional constant logK' of mixed-ligand complex” value in series [2] (UV-vis) was found to be 5.1 ± 0.1; in the series on Ac-Ala-His-Ala-NH2 (AHA) (pH 7.4, UV-vis), 4.4 ± 0.1. The “spectral changes on incubation in RPMI medium” value in series [3] is “more significant”.
Consider `O=C(O)[C@@H]1CCCN1Cc1cc([N+](=O)[O-])c2cccnc2c1O` [HQNO2-L-Pro, (2S)-1-((8-hydroxy-5-nitroquinolin-7-yl)methyl)pyrrolidin-1-ium-2-carboxylate], for which the Kd on HSA site I (Trp-214) (read-out: quenching constant logKQ' (converted)) was 16.6 µM.
With `Cc1ccc(C(C)C)cc1.O=C(O)[C@@H]1CCC[NH+]1Cc1cc([N+](=O)[O-])c2ccc[n+]3c2c1[O][Ru-]3[Cl].[Cl-]` [RuCym-HQNO2-L-Pro, [RuCym(HQNO2-L-Pro)Cl]Cl], the “time to reach equilibrium of complex formation” value in series [1] (pH 1) is ~ 7 h; in series [1] (pH 4), ~ 45 min. In addition, the “conditional constant logK' of adduct” value in series [2] (1H NMR, 24 h incubation, adduct formation quantitative) is greater than 5.5; in the series on Ac-Ala-His-Ala-NH2 (AHA) (pH 7.4, 1H NMR peak integrals, 24 h incubation) it was 5.1 ± 0.2. Further, the “spectral changes on incubation in RPMI medium” value in series [3] is on record as “more significant”.
